EC50 data for 19 molecules are collected here from US20050090522A1 (priority 2001, published 2005).

The subject of one test is HIV-1. Nature of the test: HIV-1 single-round infectious luciferase reporter virus (pseudotype) assay in HeLa CD4 CCR5 cells. It is filed as cell-based. The settings on record: Human immunodeficiency virus 1, HeLa-CD4/CCR5, read-out: EC50 Group from TABLE 1, HeLa CD4 CCR5 cells, single-round infectious luciferase reporter virus. In short, it runs like this:
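HeLa CD4 CCR5 cells (5×10^4/well, DMEM + 10% FBS) were treated with compound (final <10 μM) and infected with single-round luciferase reporter virus made in 293 cells, at MOI ~0.01. Luciferase was read 72 h post infection. EC50 came from 10-concentration percent-inhibition curves fitted to a four-parameter logistic model.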
What is called EC50 is the midpoint of the concentration-response curve. `COc1cnc(-c2cn(C)c(=O)cn2)c2[nH]cc(C(=O)C(=O)N3CCN(C(=O)c4ccccc4)CC3)c12` [Example 138, 1-(benzoyl)-4-[(4-methoxy-7-(1-methylpyrazin-2-on-5-yl)-6-azaindol-3-yl)-oxoacetyl]piperazine]: the concentration for a half-maximal effect (EC50) is less than 1000 nM.

Take `C[C@@H]1CN(C(=O)c2ccccn2)CCN1C(=O)C(=O)c1c[nH]c2c(-c3cnccn3)ncc(F)c12` [Example 141]: the concentration for a half-maximal effect (EC50) is less than 1000 nM.

On to `Nc1cnc(-c2ncc(Cl)c3c(C(=O)C(=O)N4CCN(C(=O)c5ccccc5)CC4)c[nH]c23)cn1` [Example 143], for which the EC50 is less than 1000 nM.

As for `O=C(C(=O)N1CCN(C(=O)c2ccccc2)CC1)c1c[nH]c2c(-c3cncnc3)ncc(Cl)c12` [Example 144], the EC50 is less than 1000 nM.

For the molecule `O=C(Nc1cccnc1)c1ncc(F)c2c(C(=O)C(=O)N3CCN(C(=O)c4ccccc4)CC3)c[nH]c12` [Example 147], the half-maximal effective concentration (EC50) was less than 1000 nM.

Turning to `O=C(C(=O)N1CCN(C(=O)c2ccccc2)CC1)c1c[nH]c2c(-c3c[nH]c(=O)cn3)ncc(Cl)c12` [Example 149], the EC50 was less than 1000 nM.

As to `C[C@@H]1CN(C(=O)c2ccccc2)CCN1C(=O)C(=O)c1c[nH]c2c(-c3cnc(N)cn3)nccc12` [Example 150, (R)-1-benzoyl-3-methyl-4-[(7-(5-amino-pyrazin-2-yl)-6-azaindol-3-yl)-oxoacetyl]piperazine], the concentration giving a half-maximal response (EC50) was less than 1000 nM.

Consider `COc1cnc(-c2cncs2)c2[nH]cc(C(=O)C(=O)N3CCN(C(=O)c4ccccn4)CC3)c12` [Example 151, 1-picolinoyl-4-[(4-methoxy-7-(thiazol-5-yl)-6-azaindol-3-yl)-oxoacetyl]piperazine], for which the 50% effective concentration (EC50) was less than 1000 nM.

For `O=C(Nc1cccnc1)c1ncc(Cl)c2c(C(=O)C(=O)N3CCN(C(=O)c4ccccc4)CC3)c[nH]c12` [Example 152], the EC50 is less than 1000 nM.

For the molecule `C[C@@H]1CN(C(=O)c2ccccc2)CCN1C(=O)C(=O)c1c[nH]c2c(-c3cnc(N)nc3)nccc12` [Example 153, (R)-1-benzoyl-3-methyl-4-[(7-(2-amino-pyrimidin-5-yl)-6-azaindol-3-yl)-oxoacetyl]piperazine], the concentration for a half-maximal effect (EC50) was less than 1000 nM.

Take `O=C(C(=O)N1CCN(C(=O)c2ccccc2)CC1)c1c[nH]c2c(-c3cccnn3)ncc(F)c12` [Example 154]: the EC50 was less than 1000 nM.

Take `COc1cnc(C2=NC(C)(C)CO2)c2[nH]cc(C(=O)C(=O)N3CCN(C(=O)c4ccccc4)CC3)c12` [Example 156]: the EC50 was less than 1000 nM.

As for `C[C@@H]1CN(C(=O)c2ccccc2)CCN1C(=O)C(=O)c1c[nH]c2c(-c3cnc(O)cn3)nccc12` [Example 157], the EC50 is less than 1000 nM.

With `C[C@@H]1CN(C(=O)c2ccccc2)CCN1C(=O)C(=O)c1c[nH]c2c(-c3cnc(O)nc3)nccc12` [Example 162], the concentration for a half-maximal effect (EC50) is less than 1000 nM.

For the molecule `C[C@@H]1CN(C(=O)c2ccccc2)CCN1C(=O)C(=O)c1c[nH]c2c(-c3ccc(C(=O)O)cc3)nccc12` [Example 164], the 50% effective concentration (EC50) is less than 1000 nM.

Still in this test, the particulars now being: Human immunodeficiency virus 1, HeLa-CD4/CCR5, read-out: EC50 Group from Table 1, Table 4; HeLa CD4 CCR5 cells, single-round luciferase reporter virus.
Regarding `Cc1csc(-c2ccnc3c(C(=O)C(=O)N4CCN(C(=O)c5ccccc5)CC4)c[nH]c23)c1` [Example 134], the half-maximal effective concentration (EC50) is less than 1000 nM.

`C[C@@H]1CN(C(=O)c2ccccc2)CCN1C(=O)C(=O)c1c[nH]c2c(C(=O)NCc3ccc(C(F)(F)F)cc3)ccnc12` [Example 135, (R)-1-benzoyl-3-methyl-4-[(7-(4-trifluoromethylbenzylarmino)carbonyl-4-azaindol-3-yl)-oxoacetyl]piperazine]: the EC50 is less than 1000 nM.

With `Cc1csc(NC(=O)c2ccnc3c(C(=O)C(=O)N4CCN(C(=O)c5ccccc5)C[C@H]4C)c[nH]c23)n1` [Example 136, (R)-1-benzoyl-3-methyl-4-[(7-(4-methylthiazol-2-yl)aminocarbonyl-4-azaindol-3-yl)-oxoacetyl]piperazine], the 50% effective concentration (EC50) is less than 1000 nM.

Take `C[C@@H]1CN(C(=O)c2ccccc2)CCN1C(=O)C(=O)c1c[nH]c2c(C(=O)Nc3nccs3)ccnc12` [Example 137, (R)-1-benzoyl-3-methyl-4-[(7-(thiazol-2-yl)aminocarbonyl-4-azaindol-3-yl)-oxoacetyl]piperazine]: the EC50 was less than 1000 nM.
